Measurements published in US20230365514A1, “MACROCYCLIC COMPOUNDS” (NOVO NORDISK RESEARCH CENTRE OXFORD LIMITED, priority 2017, published 2023).

Key:
Assay type in all cases: binding
[1] = ITC titration with gluconate; settings: Gluconate (from D-glucono-δ-lactone); 10 mM phosphate buffer pH 7.4, 298 K
Method: (§1) ITC experiments were carried out at 298 K. Saccharide solutions were prepared in HPLC-grade water with 10 mM phosphate buffer solution (pH 7.4) and allowed to equilibrate overnight if necessary. The sample cell was charged with a known concentration of receptor solution in HPLC-grade water with 10 mM phosphate buffer solution at pH 7.4 (typically 50 µM - 200 µM). Then, aliquots (typically 1.0 µL) of carbohydrate solution were added and the evolution of heat was followed as a function of time. Heats of dilution were measured by injecting the same carbohydrate solution into HPLC-grade water with 10 mM phosphate buffer solution at pH 7.4, using identical conditions. For every addition, the heat of dilution was subtracted from the heat of binding using a MicroCal software programme implemented in ORIGIN 7.0. This gave an XY matrix of heat vs. total guest concentration. This matrix was then imported into a specially written Excel programme to fit the data to a 1:1 binding model to give a Ka. ΔG can be derived from Ka and thus ΔS can be derived from ΔH and ΔG using common thermodynamic equations.

[2] = ITC titration with methyl β-D-glucoside
Method: (§2) ITC experiments were carried out at 298 K. Saccharide solutions were prepared in HPLC-grade water with 10 mM phosphate buffer solution (pH 7.4) and allowed to equilibrate overnight if necessary. The sample cell was charged with a known concentration of receptor solution in HPLC-grade water with 10 mM phosphate buffer solution at pH 7.4 (typically 50 µM - 200 µM). Then, aliquots (typically 1.0 µL) of carbohydrate solution were added and the evolution of heat was followed as a function of time. Heats of dilution were measured by injecting the same carbohydrate solution into HPLC-grade water with 10 mM phosphate buffer solution at pH 7.4, using identical conditions. For every addition, the heat of dilution was subtracted from the heat of binding using a MicroCal software programme implemented in ORIGIN 7.0. This gave an XY matrix of heat vs. total guest concentration. This matrix was then imported into a specially written Excel programme to fit the data to a 1:1 binding model to give a Ka. ΔG can be derived from Ka and thus ΔS can be derived from ΔH and ΔG using common thermodynamic equations. […] This method consistently produced more accurate fits than fitting the data to an S-curve, as in the MicroCal software (S-curves are typically not observed for binding constants below ~104 - 105 M^-1).

[3] = ITC titration with D-xylose; settings: 10 mM phosphate buffer pH 7.4, 298 K
Method: (§3) Isothermal Titration (Micro)Calorimetry (ITC) experiments were performed on a MicroCal iTC200 microcalorimeter and/or a MicroCali VP-ITC. ITC experiments were carried out at 298 K. Saccharide solutions were prepared in HPLC-grade water and allowed to equilibrate overnight if necessary. The sample cell was charged with a known concentration of receptor solution in HPLC-grade water (typically 50 µM - 200 µM). Then, aliquots (typically 1.0 µL) of carbohydrate solution were added and the evolution of heat was followed as a function of time. Heats of dilution were measured by injecting the same carbohydrate solution into HPLC-grade water, using identical conditions. For every addition, the heat of dilution was subtracted from the heat of binding using a MicroCal software programme implemented in ORIGIN 7.0. This gave an XY matrix of heat vs. total guest concentration. This matrix was then imported into a specially written Excel programme to fit the data to a 1:1 binding model to give a Ka. ΔG can be derived from Ka, and ΔS can be derived from ΔH and ΔG using common thermodynamic equations. This method of analysis was used in conjunction with fits for Ka calculated using the MicroCal software to corroborate the results obtained.
(§4) Isothermal Titration MicroCalorimetry (ITC) experiments were performed on a MicroCal iTC200 microcalorimeter and/or a MicroCali VP-ITC. ITC experiments were carried out at 298 K. Saccharide solutions were prepared in HPLC-grade water with 10 mM phosphate buffer solution (pH 7.4) and allowed to equilibrate overnight if necessary. The sample cell was charged with a known concentration of receptor solution in HPLC-grade water with 10 mM phosphate buffer solution at pH 7.4 (typically 50 µM - 200 µM). Then, aliquots (typically 1.0 µL) of carbohydrate solution were added and the evolution of heat was followed as a function of time. Heats of dilution were measured by injecting the same carbohydrate solution into HPLC-grade water with 10 mM phosphate buffer solution at pH 7.4, using identical conditions. […]

[4] = ITC titration with L-fucose; settings: 10 mM phosphate buffer pH 7.4, 298 K
Method: (§5) Isothermal Titration (Micro)Calorimetry (ITC) experiments were performed on a MicroCal iTC200 microcalorimeter and/or a MicroCali VP-ITC. ITC experiments were carried out at 298 K. Saccharide solutions were prepared in HPLC-grade water and allowed to equilibrate overnight if necessary. The sample cell was charged with a known concentration of receptor solution in HPLC-grade water (typically 50 µM - 200 µM). Then, aliquots (typically 1.0 µL) of carbohydrate solution were added and the evolution of heat was followed as a function of time. Heats of dilution were measured by injecting the same carbohydrate solution into HPLC-grade water, using identical conditions. For every addition, the heat of dilution was subtracted from the heat of binding using a MicroCal software programme implemented in ORIGIN 7.0. This gave an XY matrix of heat vs. total guest concentration. […] This method of analysis was used in conjunction with fits for Ka calculated using the MicroCal software to corroborate the results obtained.
(§6) Isothermal Titration MicroCalorimetry (ITC) experiments were performed on a MicroCal iTC200 microcalorimeter and/or a MicroCali VP-ITC. […] Heats of dilution were measured by injecting the same carbohydrate solution into HPLC-grade water with 10 mM phosphate buffer solution at pH 7.4, using identical conditions. […]

[5] = ITC titration with adenosine; settings: 10 mM phosphate buffer pH 7.4, 298 K
Method: as §5, §6

[6] = ITC titration with myo-inositol; settings: 10 mM phosphate buffer pH 7.4, 298 K
Method: as §1

[7] = ITC titration with paracetamol; settings: 10 mM phosphate buffer pH 7.4, 298 K
Method: as §5, §6

[8] = 1H NMR ROESY of receptor with D-glucose; settings: receptor 2 mM with D-glucose 5 mM (2.5 equivalents) in D2O
Source text: Chemical exchange peaks (black, annotated) link CH protons on β-D-glucose in free and bound states. Signals for bound α-D-glucose were not observed under these conditions.

[9] = ITC titration with 2-deoxy-D-glucose
Method: as §2

[10] = 1H NMR titration with 2-deoxy-D-glucose; settings: D2O, 10 mM phosphate buffer pH 7.4, 298 K
Method: (§7) ^1H-NMR titrations were performed on a Varian VNMR cryogenically cooled S600 spectrometer. Solutions of saccharides in D2O (99.9%), containing receptor at a known concentration to be used in the experiment, were prepared and allowed to equilibrate overnight before use if necessary. Aliquots were then added to an NMR tube containing a known concentration of receptor solution (typically 100 µM - 400 µM). The receptor concentration was therefore held constant while the carbohydrate concentration was increased. The sample tube was shaken after each addition and ^1H-NMR spectra were acquired at 298 K.
(§8) ^1H-NMR titrations were performed on a Varian VNMR cryogenically cooled S600 spectrometer. Solutions of saccharides in D2O (99.9%), containing receptor at a known concentration to be used in the experiment, were prepared and allowed to equilibrate overnight before use if necessary. Aliquots were then added to an NMR tube containing a known concentration of receptor solution (typically 50 µM - 250 µM). The receptor concentration was therefore held constant while the carbohydrate concentration was increased. […]
(§9) If the receptor bound saccharide slower than the NMR sample rate (“slow exchange”), the Ka was determined by analysing the NMR integral of a peak assigned to the Host-Guest complex. […] An estimated error for Ka was obtained from individual data points by assuming the determined Ka and Xlim.

[11] = ITC titration with ascorbic acid; settings: 10 mM phosphate buffer pH 7.4, 298 K
Method: as §5, §6

[12] = ITC titration with D-mannitol; settings: 10 mM phosphate buffer pH 7.4, 298 K
Method: as §1

[13] = ITC titration with uric acid; settings: Uric Acid (PBS) pH 7.4, 298 K
Method: as §5, §6

[14] = 1H NMR titration with myo-inositol; settings: D2O, 10 mM phosphate buffer pH 7.4, 298 K
Method: as §7, §8, §9

[15] = ITC titration with N-acetyl-D-glucosamine; settings: 10 mM phosphate buffer pH 7.4, 298 K
Method: as §1

[16] = ITC titration with D-fructose; settings: 10 mM phosphate buffer pH 7.4, 298 K
Method: as §2

[17] = ITC titration with D-glucuronic acid; settings: 10 mM phosphate buffer pH 7.4, 298 K
Method: as §3, §4

[18] = ITC titration with D-cellobiose
Method: as §2

[19] = ITC titration with cytosine; settings: 10 mM phosphate buffer pH 7.4, 298 K
Method: as §5, §6

[20] = 1H NMR titration with D-cellobiose; settings: [Host]total 110 µM
Source text: The integrals of the peak at 8.02 ppm (denoted with •, see FIG. 31) were made relative to integral of the same peak (8.02 ppm) when all receptor is assumed to be saturated with guest (i.e. the final addition in the titration, row denoted with yellow). These relative integrals are then used to determine the amount of Host-Guest [HG]. This value for [HG] along with calculated values for free host [H]free and free guest [G]free can be used to calculate the Ka at each point in the titration. […] Not all Ka values calculated were included in the averaged Ka value. The earlier integrations are unreliable due to the very small intensity of the peak at 8.02 ppm. The later integrations were also deemed unreliable due to large deviations in baseline of the spectra due to the large excess of guest present. The selected values for Ka used for the average calculation and the averaged Ka itself corroborate with the results obtained from ITC.

[21] = ITC titration with methyl α-D-glucoside; settings: 10 mM phosphate buffer pH 7.4, 298 K
Method: as §1

[22] = ITC titration with D-glucose
Method: as §2

[23] = ITC titration with L-phenylalanine; settings: 10 mM phosphate buffer pH 7.4, 298 K
Method: as §5, §6

[24] = ITC titration with L-tryptophan; settings: 10 mM phosphate buffer pH 7.4, 298 K
Method: as §5, §6

[25] = ITC titration with D-ribose; settings: 10 mM phosphate buffer pH 7.4, 298 K
Method: as §3, §4

[26] = ITC titration with D-mannose; settings: 10 mM phosphate buffer pH 7.4, 298 K
Method: as §3, §4

[27] = ITC titration with uracil; settings: Uracil (PBS) pH 7.4, 298 K
Method: as §5, §6

[28] = ITC titration with D-maltose; settings: 10 mM phosphate buffer pH 7.4, 298 K
Method: as §5, §6

[29] = ITC titration with D-galactose; settings: 10 mM phosphate buffer pH 7.4, 298 K
Method: as §3, §4

[30] = 1H NMR titration with D-glucose
Method: as §7
^1H-NMR titrations were performed on a Varian VNMR cryogenically cooled S600 spectrometer. Solutions of saccharides in D2O (99.9%), containing receptor at a known concentration to be used in the experiment, were prepared and allowed to equilibrate overnight before use if necessary. Aliquots were then added to an NMR tube containing a known concentration of receptor solution (typically 50 µM - 250 µM). The receptor concentration was therefore held constant while the carbohydrate concentration was increased. The sample tube was shaken after each addition, centrifuged and ^1H-NMR spectra were acquired at 298 K.
If the receptor bound saccharide slower than the NMR sample rate (“slow exchange”), the Ka was determined by analysing the NMR integral of a peak assigned to the Host-Guest complex. The variable X was defined as the integral of an isolated resonance of the complex (typically in the aromatic region) divided by the integral of all the related resonances (typically the whole aromatic region). As X is proportional to fraction of host in the bound state, the change in X could be plotted as a function of the guest concentration to give a curve which could be fitted to a 1:1 binding model to yield the association constant Ka. Mathematically, the fitting process is essentially identical to that employed for binding with fast exchange, except that the integral of a peak due to the complex replaces the chemical shift of a peak due to bound + unbound receptor. The calculation was performed using a non-linear least squares curve-fitting programme implemented within Excel. The programme yields binding constants Ka and limiting X (Xlim) as output. An estimated error for Ka was obtained from individual data points by assuming the determined Ka and Xlim.

[31] = Methyl β-D-Glucoside, 10 mM phosphate buffer pH 7.4, 298 K
[32] = 2-Deoxy-D-Glucose, 10 mM phosphate buffer pH 7.4, 298 K
[33] = D-Cellobiose, 10 mM phosphate buffer pH 7.4, 298 K
[34] = D-Glucose (DMEM cell culture), 10k MWCO, 10 mM phosphate buffer pH 7.4
[35] = D-Glucose (DMEM salt control), 10 mM phosphate buffer pH 7.4 with added salts
[36] = D-Glucose (Leibovitz’s L-15 cell culture), 10k MWCO, 10 mM phosphate buffer pH 7.4
[37] = D-Glucose (human serum), 10k MWCO, 10 mM phosphate buffer
[38] = D-Glucose, 10 mM phosphate buffer pH 7.4, 298 K

CCc1c2c(CC)c3c(CC)c1CNC(=O)Nc1ccc(C(=O)NC(CCC(=O)NC(CCC(=O)[O-])(CCC(=O)[O-])CCC(=O)[O-])(CCC(=O)NC(CCC(=O)[O-])(CCC(=O)[O-])CCC(=O)[O-])CCC(=O)NC(CCC(=O)[O-])(CCC(=O)[O-])CCC(=O)[O-])cc1NC(=O)NCc1c(CC)c(c(CC)c(c1CC)CNC(=O)Nc1cc(C(=O)NC(CCC(=O)NC(CCC(=O)[O-])(CCC(=O)[O-])CCC(=O)[O-])(CCC(=O)NC(CCC(=O)[O-])(CCC(=O)[O-])CCC(=O)[O-])CCC(=O)NC(CCC(=O)[O-])(CCC(=O)[O-])CCC(=O)[O-])ccc1NC(=O)NC3)CNC(=O)Nc1cc(C(=O)NC(CCC(=O)NC(CCC(=O)[O-])(CCC(=O)[O-])CCC(=O)[O-])(CCC(=O)NC(CCC(=O)[O-])(CCC(=O)[O-])CCC(=O)[O-])CCC(=O)NC(CCC(=O)[O-])(CCC(=O)[O-])CCC(=O)[O-])ccc1NC(=O)NC2.[Na+].[Na+].[Na+].[Na+].[Na+].[Na+].[Na+].[Na+].[Na+].[Na+].[Na+].[Na+].[Na+].[Na+].[Na+].[Na+].[Na+].[Na+].[Na+].[Na+].[Na+].[Na+].[Na+].[Na+].[Na+].[Na+].[Na+] [Receptor 1, Triethylbenzene Receptor]
Ka (Determined by ITC) [1]: 0 M⁻¹ | TΔS (Determined by ITC) [2, 31]: 5.07 kcal/mol | ΔG (Determined by ITC) [2, 31]: -5.31 kcal/mol | ΔH (Determined by ITC) [2, 31]: -0.765 kcal/mol | Ka by ITC, fit calculated with the supplied ITC software ([2]; methyl-β-D-glucoside in H2O): 9120 ± 542 M⁻¹ | TΔS (Determined by ITC) [3]: 3.23 kcal/mol | ΔG (Determined by ITC) [3]: -5.14 kcal/mol | ΔH (Determined by ITC) [3]: -1.91 kcal/mol | Ka (Determined by ITC) [4]: 0 M⁻¹ | Ka (Determined by ITC) [5]: 0 M⁻¹ | TΔS (Determined by ITC) [6]: -0.574 kcal/mol | ΔG (Determined by ITC) [6]: -5.28 kcal/mol | Ka (Determined by ITC) [7]: 0 M⁻¹ | Signals for bound α-D-glucose (ROESY) [8]: not observed | TΔS (Determined by ITC) [9, 32]: 3.2 kcal/mol | ΔG (Determined by ITC) [9, 32]: -3.9 kcal/mol | ΔH (Determined by ITC) [9, 32]: -0.693 kcal/mol | Ka by ITC, fit calculated with the supplied ITC software ([9]; 2-deoxy-D-glucose in H2O): 657 ± 90 M⁻¹ | Binding implied by 1H NMR spectra (no Ka determinable) [10]: binding with intermediate rate of exchange | Ka (Determined by ITC) [11]: 0 M⁻¹ | Ka (Determined by ITC) [12]: 0 M⁻¹ | Ka (Determined by ITC) [13]: 0 M⁻¹ | Ka (Determined by NMR) [14]: 7328 ± 7.4% | Ka (Determined by ITC) [15]: 0 M⁻¹ | TΔS (Determined by ITC) [16]: -2.27 kcal/mol | ΔG (Determined by ITC) [16]: -2.53 kcal/mol | ΔH (Determined by ITC) [16]: -4.78 kcal/mol | TΔS (Determined by ITC) [17]: -1.55 kcal/mol | ΔG (Determined by ITC) [17]: -5.09 kcal/mol | ΔH (Determined by ITC) [17]: -6.64 kcal/mol | TΔS (Determined by ITC) [18, 33]: -0.17 kcal/mol | ΔG (Determined by ITC) [18, 33]: -2.03 kcal/mol | ΔH (Determined by ITC) [18, 33]: -2.2 kcal/mol | Ka by ITC, fit calculated with the supplied ITC software ([18]; cellobiose in H2O): 36.6 ± 2.5 M⁻¹ | Ka (Determined by ITC) [19]: 0 M⁻¹ | Ka calculated at titration point (NMR) ([20]; [Guest]total 20 mM): 0.55 M⁻¹ | Ka calculated at titration point (NMR) ([20]; [Guest]total 39 mM): 29.0 M⁻¹ | Ka calculated at titration point (NMR) ([20]; [Guest]total 58 mM): 31.2 M⁻¹ | Ka calculated at titration point (NMR) ([20]; [Guest]total 96 mM): 29.4 M⁻¹ | Ka calculated at titration point (NMR) ([20]; [Guest]total 132 mM): 34.9 M⁻¹ | Ka calculated at titration point (NMR) ([20]; [Guest]total 167 mM): 81.5 M⁻¹ | Ka calculated at titration point (NMR) ([20]; [Guest]total 251 mM): 74.0 M⁻¹ | Ka calculated at titration point (NMR) ([20]; [Guest]total 329 mM): 386 M⁻¹ | Ka (Determined by ITC) [21]: 0 M⁻¹ | TΔS (Determined by ITC) [22, 34]: 3.87 kcal/mol | ΔG (Determined by ITC) [22, 34]: -5.11 kcal/mol | ΔH (Determined by ITC) [22, 34]: -1.24 kcal/mol | TΔS (Determined by ITC) [22, 35]: 3.87 kcal/mol | ΔG (Determined by ITC) [22, 35]: -5.07 kcal/mol | ΔH (Determined by ITC) [22, 35]: -1.2 kcal/mol | TΔS (Determined by ITC) [22, 36]: 4.06 kcal/mol | ΔG (Determined by ITC) [22, 36]: -5.07 kcal/mol | ΔH (Determined by ITC) [22, 36]: -1 kcal/mol | TΔS (Determined by ITC) [22, 37]: 3.66 kcal/mol | ΔG (Determined by ITC) [22, 37]: -4.64 kcal/mol | ΔH (Determined by ITC) [22, 37]: -0.98 kcal/mol | Ka (Determined by ITC) ([22]; D-Glucose pH 6 (PBS), 298 K): 17,300 ± 3.8% | TΔS (Determined by ITC) ([22]; D-Glucose pH 6 (PBS), 298 K): 5.16 kcal/mol | ΔG (Determined by ITC) ([22]; D-Glucose pH 6 (PBS), 298 K): -5.78 kcal/mol | ΔH (Determined by ITC) ([22]; D-Glucose pH 6 (PBS), 298 K): -0.621 kcal/mol | Ka (Determined by ITC) ([22]; D-Glucose pH 7 (PBS), 298 K): 17,800 ± 5.5% | TΔS (Determined by ITC) ([22]; D-Glucose pH 7 (PBS), 298 K): 5.26 kcal/mol | ΔG (Determined by ITC) ([22]; D-Glucose pH 7 (PBS), 298 K): -5.81 kcal/mol | ΔH (Determined by ITC) ([22]; D-Glucose pH 7 (PBS), 298 K): -0.526 kcal/mol | Ka (Determined by ITC) ([22]; D-Glucose pH 8 (PBS), 298 K): 18,300 ± 1.8% | TΔS (Determined by ITC) ([22]; D-Glucose pH 8 (PBS), 298 K): 5.21 kcal/mol | ΔG (Determined by ITC) ([22]; D-Glucose pH 8 (PBS), 298 K): -5.81 kcal/mol | ΔH (Determined by ITC) ([22]; D-Glucose pH 8 (PBS), 298 K): -0.621 kcal/mol | Ka (Determined by ITC) [22, 38]: 18,600 ± 14.3% | TΔS (Determined by ITC) [22, 38]: 3.97 kcal/mol | ΔG (Determined by ITC) [22, 38]: -5.83 kcal/mol | ΔH (Determined by ITC) [22, 38]: -1.86 kcal/mol | Ka by ITC, fit calculated with the supplied ITC software ([22]; D-glucose in 10 mM PBS buffer (pH 6)): 19,800 ± 1290 M^-1 | Ka by ITC, fit calculated with the supplied ITC software ([22]; D-glucose in 10 mM PBS buffer (pH 7.4)): 19,100 ± 1310 M^-1 | Ka by ITC, fit calculated with the supplied ITC software ([22]; D-glucose in 10 mM PBS buffer (pH 8)): 23,400 ± 1850 M^-1 | Ka by ITC, fit calculated with the supplied ITC software ([22]; glucose in H2O): 21,000 ± 2640 M^-1 | Ka (Determined by ITC) [23]: 0 M⁻¹ | Ka (Determined by ITC) [24]: 0 M⁻¹ | TΔS (Determined by ITC) [25]: -2.32 kcal/mol | ΔG (Determined by ITC) [25]: -3.18 kcal/mol | ΔH (Determined by ITC) [25]: -5.5 kcal/mol | TΔS (Determined by ITC) [26]: 0.14 kcal/mol | ΔG (Determined by ITC) [26]: -2.94 kcal/mol | ΔH (Determined by ITC) [26]: -2.82 kcal/mol | Ka (Determined by ITC) [27]: 0 M⁻¹ | Ka (Determined by ITC) [28]: 0 M⁻¹ | TΔS (Determined by ITC) [29]: 1 kcal/mol | ΔG (Determined by ITC) [29]: -3.08 kcal/mol | ΔH (Determined by ITC) [29]: -2.1 kcal/mol | Saturation of receptor on addition of 2 equivalents (0.2 mM) of D-glucose (1H NMR) ([30]; D2O with no added salts): did saturate the receptor | Saturation of receptor on addition of 2 equivalents (0.2 mM) of D-glucose (1H NMR) ([30]; with MgSO4 (0.8 mM) and CaCl2 (1.8 mM), D2O, 10 mM phosphate buffer pH 7.4, 298 K): did not saturate the receptor
